Assay results as given in publication PMC2631555 (Bioorganic & medicinal chemistry letters, 2008).

Tests used:
Vero cells = settings: read-out: Vero EC50; 48 h exposure, CellTiter-Glo
[1] = PAMPA
[2] = Solubility in PBS + 5% DMSO; settings: 2 h, room temperature
tubulin = settings: 10 µM compound; purified tubulin 7.2 µM, GTP, 37°C, 0.5% DMSO

COc1cc2c(c(OC)c1OC)-c1ccc(OC)c(=O)cc1[C@@H](NC(=O)CCCCCNC(=O)COc1ccc(/C=C/C3=[N+]4C(=Cc5ccc(-c6ccc[nH]6)n5[B-]4(F)F)C=C3)cc1)CC2 [colchicine-646]
EC50 (Vero cells): > 10 µM
Permeability [1]: <10 10^-6 cm/s

COc1cc2c(c(OC)c1OC)-c1ccc(OC)c(=O)cc1[C@@H](NC(C)=O)CC2 [Colchicine]
Solubility [2]: highly soluble

CC(=O)O[C@H]1C(=O)[C@@]2(C)[C@H]([C@H](OC(=O)c3ccccc3)[C@]3(O)C[C@H](OC(=O)[C@H](O)[C@@H](NC(=O)c4ccccc4)c4ccccc4)C(C)=C1C3(C)C)[C@]1(OC(C)=O)CO[C@@H]1C[C@@H]2O [paclitaxel]
Microtubule formation compared with untreated tubulin (tubulin): enhanced
